Consider 1 molecule from publication PMC8179358, “An explicitly designed paratope of amyloid-β prevents neuronal apoptosis in vitro and hippocampal damage in rat brain” (Chemical Science, 2020).

*1 amine or outer side, *2 acyl side, *3 side chain or, on linkers, in order; H or OH if unused. Where a SMILES comes first, the peptide text is derived from it. Bridges are numbered along the chain shown (N, C = ends). Roman numbers before positions name the chains, in order. [ ]: non-standard residue; d: D form. X1 = O=C(CCCCC(=O)[*:2])NCCCOCCOCCOCCCNC(=O)CCC(=O)[*:1]; NMeF = CN[C@@H](Cc1ccccc1)C(=O)O; NMeL = CN[C@@H](CC(C)C)C(=O)O; NMeV = CN[C@H](C(=O)O)C(C)C

This data set relates to liver and kidney tissue. Nature of the data set: Sub-chronic toxicity, histopathology of liver and kidney. The data set is classed as in vivo, Sprague-Dawley rats. Particulars: 100 and 500 μg kg−1, tail vein, once daily, 42 days, n = 8/group. On the procedure: The tabulated biochemical profile (novel biomarkers of the liver and kidney) corroborates the safety charms of SP1 for further in vivo studies.
24 male Sprague Dawley rats were randomly divided into three groups: control, SP1A, and SP1B. Each group contains 8 animals and administration of SP1was performed for 42 days through a tail vein by the following schedule: Control: Without any treatment.
Rats were sacrificed after 42 days of injection schedule and blood was collected for hematological and biochemical estimations. For the histopathological study, the liver and kidney were also isolated very carefully and checked for cytoarchitectural changes if any.
The body weights and volumes of SP1 to be administered were recorded for each animal. Prior to injection, the tail of the animal was warmed by using warm water circulating pad placed under the cage for 5-10 minutes to dilate the veins. A 25-gauge needle was inserted into the vein towards the direction of the head. The needle and syringe were kept parallel to the tail. […]
The biochemical parameters including blood glucose, serum urea, creatinine, total bilirubin, serum glutamic oxaloacetic transaminase (SGOT), serum glutamic pyruvic transaminase (SGPT), and alkaline phosphatase (ALP) were analyzed for sub-chronic toxicity of SP1by using commercially available diagnostic test kits (Crest Biosystems kits, India). […]

As to `CC(C)C[C@H](NC(=O)CNC(=O)CCC(=O)NCCCOCCOCCOCCCNC(=O)CCCCC(=O)NCC(=O)N(C)[C@@H](CC(C)C)C(=O)N[C@H](C(=O)N(C)[C@@H](Cc1ccccc1)C(=O)N[C@@H](Cc1ccccc1)C(=O)N[C@@H](C)C(N)=O)C(C)C)C(=O)N(C)[C@H](C(=O)N[C@@H](Cc1ccccc1)C(=O)N(C)[C@@H](Cc1ccccc1)C(=O)N[C@@H](C)C(N)=O)C(C)C` [SP1] (I: GL[NMeV]F[NMeF]A-NH2 / II: G[NMeL]V[NMeF]FA-NH2; linker I:N-II:N via X1), the “cytoarchitectural changes in liver and kidney tissue” value was “did not observe any cytoarchitectural changes in the liver and kidney tissue”.
